Data taken from ChEMBL document CHEMBL1128639, “Mechanism of inhibition of poly(ADP-ribose) glycohydrolase by adenosine diphosphate (hydroxymethyl)pyrrolidinediol” (J Med Chem, 1995).

What was measured:
[1] = Compound was tested for its inhibitory activity against venom NAD glycohydrolase; parameters: species or system Bungarus fasciatus
[2] = Compound was tested for the inhibitor activity against NAD glycohydrolase.; parameters: species or system Bungarus fasciatus
[3] = biological target: Poly(ADP-ribose) glycohydrolase (Bos taurus) (UniProt O02776); experiment: Kid describes the approach of hyperbolic function to its new limiting value as [I] increases, for the 1/V vs [I] replot.
Poly(ADP-ribose) glycohydrolase (Bos taurus), sequence (O02776 whole entry): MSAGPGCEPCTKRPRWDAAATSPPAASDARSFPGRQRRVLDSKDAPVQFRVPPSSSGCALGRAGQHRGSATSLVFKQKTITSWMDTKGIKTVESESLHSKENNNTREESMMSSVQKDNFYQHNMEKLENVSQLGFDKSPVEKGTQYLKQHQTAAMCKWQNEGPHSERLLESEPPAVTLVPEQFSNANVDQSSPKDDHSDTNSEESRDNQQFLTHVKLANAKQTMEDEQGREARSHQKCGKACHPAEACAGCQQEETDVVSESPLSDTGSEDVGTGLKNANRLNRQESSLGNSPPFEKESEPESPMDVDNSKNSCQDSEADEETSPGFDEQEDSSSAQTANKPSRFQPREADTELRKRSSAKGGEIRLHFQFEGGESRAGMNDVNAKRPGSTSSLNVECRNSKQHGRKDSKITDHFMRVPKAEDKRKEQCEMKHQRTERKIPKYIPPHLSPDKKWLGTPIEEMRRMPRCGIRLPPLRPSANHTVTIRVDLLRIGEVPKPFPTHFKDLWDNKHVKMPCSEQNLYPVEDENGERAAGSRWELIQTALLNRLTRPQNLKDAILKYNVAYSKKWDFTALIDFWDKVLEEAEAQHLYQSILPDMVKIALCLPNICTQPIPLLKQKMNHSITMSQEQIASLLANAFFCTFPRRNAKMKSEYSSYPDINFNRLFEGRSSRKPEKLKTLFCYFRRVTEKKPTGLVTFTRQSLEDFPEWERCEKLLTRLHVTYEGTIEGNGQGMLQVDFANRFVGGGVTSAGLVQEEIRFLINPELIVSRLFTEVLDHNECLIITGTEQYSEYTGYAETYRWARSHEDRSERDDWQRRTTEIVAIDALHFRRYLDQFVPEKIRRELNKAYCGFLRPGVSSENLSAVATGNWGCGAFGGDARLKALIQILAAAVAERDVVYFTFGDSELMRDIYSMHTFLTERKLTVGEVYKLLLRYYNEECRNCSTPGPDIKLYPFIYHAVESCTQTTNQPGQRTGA

[4] = biological target: Poly(ADP-ribose) glycohydrolase (Bos taurus) (UniProt O02776); experiment: Kid describes the approach of hyperbolic function to its new limiting value as [I] increases, for the KM/V vs [I] replot.
[5] = biological target: Poly(ADP-ribose) glycohydrolase (Bos taurus) (UniProt O02776); experiment: Inhibitor dissociation constant for the 1/V vs [I] replot.
[6] = biological target: Poly(ADP-ribose) glycohydrolase (Bos taurus) (UniProt O02776); experiment: Inhibitor dissociation constant was determined by the analysis of the slope versus [inhibitor] replot.e.K

SMILES: Nc1ncnc2c1ncn2[C@@H]1O[C@H](COP(=O)(O)OP(=O)(O)OC[C@H]2NC[C@H](O)[C@@H]2O)[C@@H](O)[C@H]1O [ADENOSINE DIPHOSPHATE (HYDROXYMETHYL)PYRROLIDINEDIOL]
- IC50 [1]: 260 µM
- Ki [2]: 94 µM
- Kid [3]: 0.21 µM
- Kid [4]: 0.26 µM
- Kin [5]: 0.052 µM
- Kin [6]: 0.08 µM
